Broadly, the bioavailability is dose-corrected exposure relative to a reference, in per cent. The low end stands for little systemic uptake, the high end for much systemic uptake. Broadly, the CL/F is clearance divided by bioavailability, as obtained after extravascular dosing. Broadly, the half-life is the time needed for the level to fall by half in the phase considered. Higher therefore signals slow decline. In general, Cmax refers to the highest concentration seen after dosing.

Data set [1] can be described thus: Oral bioavailability in rat. Type of data set: ADME, organism-based. As to conditions: in vivo.
A short description of data set [2]: Clearance in po dosed rat blood. Type of data set: ADME, organism-based.
Data set [3] in a line: Half life in po dosed rat. Type of data set: ADME, organism-based. Conditions: in vivo.
A short description of data set [4]: Cmax in Hartley guinea pig at 0.5 to 15 mg/kg, iv. Type of data set: ADME, organism-based, Cavia porcellus. As to conditions: in vivo. Details: dose 0.5-15 mg/kg, route intravenous.
Another data set relates to Rattus norvegicus. The data set is described as follows: Volume of distribution at steady state in po dosed rat. Type of data set: ADME, organism-based. Conditions: in vivo.

On to `Cc1nc(C)c(-c2nnc(SCCCN3C[C@@H]4C[C@]4(c4ccc(C(F)(F)F)cc4)C3)n2C)s1`, for which the bioavailability in data set [1] amounted to 23%. The compound also had a CL/F in data set [2] of 26 mL/min/kg. Further, in data set [3], the half-life was 2 h. Also, in data set [4], the peak level (Cmax) was 8320 ng/mL. The Vdss in the data set with Rattus norvegicus turned out to be 3.9 L/kg.
The corresponding values for `Cc1ncoc1-c1nnc(SCCCN2CC3CC3(c3ccc(C(F)(F)F)cc3F)C2)n1C` (single isomer, unassigned; 74) are 47%, 18 mL/min/kg, 3.7 h, 8640 ng/mL and 4.3 L/kg.
Compound `Cn1c(SCCCN2C[C@@H]3C[C@]3(c3ccc(C(F)(F)F)cc3)C2)nnc1-c1ccnnc1` yielded a bioavailability in data set [1] of 46%. This compound returned a CL/F in data set [2] of 13 mL/min/kg. The compound also gave a half-life in data set [3] of 2.1 h. This compound also had a Cmax in data set [4] of 9580 ng/mL. In the data set on Rattus norvegicus, this compound registered a Vdss of 2.2 L/kg.
With `Cc1ncoc1-c1nnc(SCCCN2CC3CC3(c3ccc(Cl)cc3)C2)n1C` (single isomer, unassigned; 51), the bioavailability in data set [1] was found to be 31%. For the same compound, the CL/F in data set [2] came to 40 mL/min/kg. Further, the half-life in data set [3] is 1.3 h. The compound further displayed a Vdss in the data set on Rattus norvegicus of 2.6 L/kg.
In the case of `Cc1ncoc1-c1nnc(SCCCN2CC3CC3(c3ccc(C(F)(F)F)cc3)C2)n1C` (racemic), in data set [1], the bioavailability worked out at 85%. The CL/F in data set [2] is 14 mL/min/kg. Moreover, the half-life in data set [3] is 3.2 h. The Vdss in the data set with Rattus norvegicus worked out at 3.5 L/kg.
In turn, `Cc1ncccc1-c1nnc(SCCCN2C[C@@H]3C[C@]3(c3ccc(C(F)(F)F)cc3)C2)n1C` displayed a bioavailability in data set [1] of 50%. Moreover, the CL/F in data set [2] was found to be 18 mL/min/kg. Further, in data set [3], the half-life is 2.1 h. The Cmax in data set [4] was 6240 ng/mL. Moreover, in the data set with Rattus norvegicus, the Vdss was 2.5 L/kg.
